Consider four compounds from patent US20080090835A1, “Polymorphic forms of ziprasidone HCl and processes for their preparation” (Teva Pharmaceuticals USA, Inc. for Barbados, priority 2003, published 2008).

Structures can show the parent of a compound that is named as a salt.

Common to all, as to format: physicochemical
Series [1] in a line: Solubility in methanol (noted for Karl Fisher water determination). The source says:
Ziprasidone HCl Form G may have a water content of about 5% to about 12%. Ziprasidone HCl Form G may be a dihydrate (about 7.4% stoichiometric value for the dihydrate) or a trihydrate (about 10.7% stoichiometric value for the trihydrate).

A short description of series [2]: Equilibration at different relative humidities for 22 days: water uptake (TGA weight loss) and crystal form. The settings on record: for TGA weight loss (%) (water uptake): HCl. The source says: (§1) Form A is characterized by an X-Ray diffraction pattern having peaks at about 10.9, 17.4 19.1, 25.0 and 26.0±0.2 degrees 2 theta.
(§2) In another aspect, the present invention provides for ziprasidone HCl Form F. Ziprasidone HCl Form F is characterized by an XRD pattern (FIG. 7) with peaks at 11.0, 18.1, 19.5, 21.9±0.2 degrees 2 theta. Ziprasidone HCl Form F is further characterized by XRD peaks at 14.9, 24.9, 26.1±0.2 degrees 2 theta. […] The water content and the weight loss by TGA of the sample may range of about 2.6% to about 16% by weight.
(§3) X-Ray powder diffraction data were obtained using by method known in the art using a SCINTAG powder X-Ray diffractometer model X'TRA equipped with a solid state detector. Copper radiation of 1.5418 Å was used. A round aluminum sample holder with round zero background quartz plate, with cavity of 25(diameter)*0.5(dept) mm.
TGA analysis was done using a Mettler M3 meter. The weight of the samples was about 10 mg; the samples were scanned at a rate of 10° C./min from 25° C. to 200° C. The oven was constantly purged with nitrogen gas at a flow rate of 40 ml/min. Standard 70 μl alumina crucibles covered by lids with 1 hole were used.
(§4) The water content of ziprasidone HCl was measured by the methods known in the art like Karl Fisher or thermogravimetric analysis (TGA). In the case of ziprasidone HCl F, the TGA and Karl Fisher analysis matched, while for ziprasidone HCl form E the TGA analysis exceeded by far that of Karl Fisher, as an indication that a significant quantity of solvent is present.

A short description of series [3]: Heating at 80-105° C. overnight: crystal form and water content. The following applies: for Crystal form after heating at 80-105° C. overnight / Crystal form after heating at elevated temperature: HCl; for Crystal form after heating at elevated temperature: about 80° C. overnight.
Text: as §1, §2, §3, §4

A further series in a line: Solubility in water.

On to `O=C1Cc2cc(CCN3CCN(c4nsc5ccccc45)CC3)c(Cl)cc2N1` [Ziprasidone HCl Form G, ziprasidone HCl], for which the Solubility in methanol entry in series [1] is on record as “sparingly soluble”.

Take `O=C1Cc2cc(CCN3CCN(c4nsc5ccccc45)CC3)c(Cl)cc2N1` [ziprasidone HCl form E, ziprasidone HCl]: the Crystal form entry was “Amorphous” in series [2] (RH 0%, 22 days); “Monohydrate +” in series [2] (RH 80%, 22 days); “Monohydrate +” in series [2] (RH 100%, 22 days). The “TGA weight loss (%) (water uptake)” value in series [2] (RH 0%, 22 days) is 5.3%; in series [2] (RH 20%, 22 days) it was 7.2%; in series [2] (RH 40%, 22 days), 4.8%; in series [2] (RH 60%, 22 days), 5.0%; in series [2] (RH 80%, 22 days), 9.2%; in series [2] (RH 100%, 22 days) it was 51.3%. Moreover, in series [2] (RH about 20% to about 60%, about 22 days), the “Crystal form after exposure to relative humidity of about 20% to about 60%” value was “transforms to Form A”. In addition, the “Crystal form after exposure to low relative humidity” value in series [2] (about 10% to about 0% relative humidity, 22 days) is given as “transforms to amorphous form”. Further, in series [2] (high relative humidity, about 22 days), the “Crystal form after exposure to high relative humidity” value is listed as “transforms to form M”. Further, the “Crystal form after heating at 80-105° C. overnight” value in series [3] is “Amorphous + form F”. Also, in series [3], the “Crystal form after heating at elevated temperature” value is recorded as “transforms to amorphous form”.

Take `O=C1Cc2cc(CCN3CCN(c4nsc5ccccc45)CC3)c(Cl)cc2N1` [ziprasidone HCl form F, ziprasidone HCl]: the “TGA weight loss (%) (water uptake)” value was found to be 2.6% in series [2] (RH 0%, 22 days); 4.2% in series [2] (RH 20%, 22 days); 4.0% in series [2] (RH 40%, 22 days); 4.5% in series [2] (RH 60%, 22 days); 7.7% in series [2] (RH 80%, 22 days); 15.8% in series [2] (RH 100%, 22 days). For the same compound, in series [2] (RH about 0% to about 100%), the “Crystal form after equilibration at relative humidity of about 0% to about 100%” value is on record as “retains its crystal form”. For the same compound, the “Crystal form after heating at 80-105° C. overnight” value in series [3] is “Form F”. Moreover, the “Crystal form after heating at elevated temperature” value in series [3] is on record as “retains its original crystal form”. Moreover, the “% water content” value in series [3] (after heating at 80-105° C. overnight) was 0.8%. The “Water content after heating” value in series [3] (heated overnight at about 80° C.) amounted to 0.8%.

`O=C1Cc2cc(CCN3CCN(c4nsc5ccccc45)CC3)c(Cl)cc2N1` [ziprasidone HCl]: in the series “Solubility in water”, the Solubility in water result was “low solubility”.
